Literature values in US12343348B2, “Methods for treating subjects with Prader-Willi syndrome or Smith-Magenis syndrome” (Essentialis, Inc., priority 2014, dated 2025).

Columns and labels:
[1] = target: Kir6.2/SUR1 channel (Rattus norvegicus, UniProt Q09429); details: Dabrowski, et al., Diabetes 51 (2002)
[2] = target: T1, KATP channel (Homo sapiens, UniProt Q09428); details: patients with hyperinsulinism and patients with pancreatic insulinoma
T1 construct: host or cells: patients with hyperinsulinism or pancreatic insulinoma (endogenous channel)
T1 sequence (Q09428 whole entry): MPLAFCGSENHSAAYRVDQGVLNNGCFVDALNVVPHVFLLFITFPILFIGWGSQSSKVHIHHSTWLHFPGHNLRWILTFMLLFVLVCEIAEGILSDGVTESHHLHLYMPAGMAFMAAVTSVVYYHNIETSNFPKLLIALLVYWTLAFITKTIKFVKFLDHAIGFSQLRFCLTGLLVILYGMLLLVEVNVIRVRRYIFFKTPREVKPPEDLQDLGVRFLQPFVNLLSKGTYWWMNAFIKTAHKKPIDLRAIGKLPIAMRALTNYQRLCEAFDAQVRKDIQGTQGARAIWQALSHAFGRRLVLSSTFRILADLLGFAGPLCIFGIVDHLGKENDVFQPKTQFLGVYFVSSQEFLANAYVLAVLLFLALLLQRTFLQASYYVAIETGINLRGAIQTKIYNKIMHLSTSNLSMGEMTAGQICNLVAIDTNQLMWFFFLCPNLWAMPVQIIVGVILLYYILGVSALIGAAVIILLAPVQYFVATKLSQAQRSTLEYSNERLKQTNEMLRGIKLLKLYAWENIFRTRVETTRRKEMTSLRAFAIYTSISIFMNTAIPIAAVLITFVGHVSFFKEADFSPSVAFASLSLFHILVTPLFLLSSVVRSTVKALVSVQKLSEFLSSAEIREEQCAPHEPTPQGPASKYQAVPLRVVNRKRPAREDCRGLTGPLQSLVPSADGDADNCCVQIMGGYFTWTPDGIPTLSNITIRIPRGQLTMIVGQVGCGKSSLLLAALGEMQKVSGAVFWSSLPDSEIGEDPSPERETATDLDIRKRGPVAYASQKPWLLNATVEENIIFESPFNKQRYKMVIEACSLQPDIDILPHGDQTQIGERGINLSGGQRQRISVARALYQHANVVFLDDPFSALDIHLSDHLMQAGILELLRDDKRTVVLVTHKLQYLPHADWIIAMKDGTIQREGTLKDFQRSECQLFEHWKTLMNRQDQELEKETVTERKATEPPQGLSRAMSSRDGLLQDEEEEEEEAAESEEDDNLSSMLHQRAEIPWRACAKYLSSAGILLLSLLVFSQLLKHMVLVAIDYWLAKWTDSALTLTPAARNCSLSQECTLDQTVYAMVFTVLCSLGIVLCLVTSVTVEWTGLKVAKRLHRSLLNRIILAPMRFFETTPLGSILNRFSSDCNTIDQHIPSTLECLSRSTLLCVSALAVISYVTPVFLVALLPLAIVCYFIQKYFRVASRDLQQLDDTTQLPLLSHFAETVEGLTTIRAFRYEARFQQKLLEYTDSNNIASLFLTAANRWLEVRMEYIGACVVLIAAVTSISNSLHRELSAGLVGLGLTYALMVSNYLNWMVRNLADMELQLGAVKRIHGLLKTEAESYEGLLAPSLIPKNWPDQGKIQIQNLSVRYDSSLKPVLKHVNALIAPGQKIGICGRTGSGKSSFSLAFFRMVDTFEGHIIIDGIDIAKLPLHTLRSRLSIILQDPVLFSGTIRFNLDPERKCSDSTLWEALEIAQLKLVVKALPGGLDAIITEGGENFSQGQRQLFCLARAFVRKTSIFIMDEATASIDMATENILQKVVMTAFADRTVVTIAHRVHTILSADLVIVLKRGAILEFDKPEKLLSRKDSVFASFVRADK
T1 sequence (Q14654 whole entry partner): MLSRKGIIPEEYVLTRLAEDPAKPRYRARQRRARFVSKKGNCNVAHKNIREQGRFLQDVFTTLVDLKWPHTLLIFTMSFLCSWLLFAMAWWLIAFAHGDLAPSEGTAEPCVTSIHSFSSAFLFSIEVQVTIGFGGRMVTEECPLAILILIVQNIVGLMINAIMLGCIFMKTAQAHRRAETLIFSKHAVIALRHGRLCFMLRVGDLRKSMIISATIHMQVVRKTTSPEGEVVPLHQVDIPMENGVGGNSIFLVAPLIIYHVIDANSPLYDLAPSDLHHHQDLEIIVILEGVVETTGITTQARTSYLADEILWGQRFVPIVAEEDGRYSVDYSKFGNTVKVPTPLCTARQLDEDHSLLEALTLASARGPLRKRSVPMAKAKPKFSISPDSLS

Sequence of Kir6.2/SUR1 channel (Q09429 whole entry): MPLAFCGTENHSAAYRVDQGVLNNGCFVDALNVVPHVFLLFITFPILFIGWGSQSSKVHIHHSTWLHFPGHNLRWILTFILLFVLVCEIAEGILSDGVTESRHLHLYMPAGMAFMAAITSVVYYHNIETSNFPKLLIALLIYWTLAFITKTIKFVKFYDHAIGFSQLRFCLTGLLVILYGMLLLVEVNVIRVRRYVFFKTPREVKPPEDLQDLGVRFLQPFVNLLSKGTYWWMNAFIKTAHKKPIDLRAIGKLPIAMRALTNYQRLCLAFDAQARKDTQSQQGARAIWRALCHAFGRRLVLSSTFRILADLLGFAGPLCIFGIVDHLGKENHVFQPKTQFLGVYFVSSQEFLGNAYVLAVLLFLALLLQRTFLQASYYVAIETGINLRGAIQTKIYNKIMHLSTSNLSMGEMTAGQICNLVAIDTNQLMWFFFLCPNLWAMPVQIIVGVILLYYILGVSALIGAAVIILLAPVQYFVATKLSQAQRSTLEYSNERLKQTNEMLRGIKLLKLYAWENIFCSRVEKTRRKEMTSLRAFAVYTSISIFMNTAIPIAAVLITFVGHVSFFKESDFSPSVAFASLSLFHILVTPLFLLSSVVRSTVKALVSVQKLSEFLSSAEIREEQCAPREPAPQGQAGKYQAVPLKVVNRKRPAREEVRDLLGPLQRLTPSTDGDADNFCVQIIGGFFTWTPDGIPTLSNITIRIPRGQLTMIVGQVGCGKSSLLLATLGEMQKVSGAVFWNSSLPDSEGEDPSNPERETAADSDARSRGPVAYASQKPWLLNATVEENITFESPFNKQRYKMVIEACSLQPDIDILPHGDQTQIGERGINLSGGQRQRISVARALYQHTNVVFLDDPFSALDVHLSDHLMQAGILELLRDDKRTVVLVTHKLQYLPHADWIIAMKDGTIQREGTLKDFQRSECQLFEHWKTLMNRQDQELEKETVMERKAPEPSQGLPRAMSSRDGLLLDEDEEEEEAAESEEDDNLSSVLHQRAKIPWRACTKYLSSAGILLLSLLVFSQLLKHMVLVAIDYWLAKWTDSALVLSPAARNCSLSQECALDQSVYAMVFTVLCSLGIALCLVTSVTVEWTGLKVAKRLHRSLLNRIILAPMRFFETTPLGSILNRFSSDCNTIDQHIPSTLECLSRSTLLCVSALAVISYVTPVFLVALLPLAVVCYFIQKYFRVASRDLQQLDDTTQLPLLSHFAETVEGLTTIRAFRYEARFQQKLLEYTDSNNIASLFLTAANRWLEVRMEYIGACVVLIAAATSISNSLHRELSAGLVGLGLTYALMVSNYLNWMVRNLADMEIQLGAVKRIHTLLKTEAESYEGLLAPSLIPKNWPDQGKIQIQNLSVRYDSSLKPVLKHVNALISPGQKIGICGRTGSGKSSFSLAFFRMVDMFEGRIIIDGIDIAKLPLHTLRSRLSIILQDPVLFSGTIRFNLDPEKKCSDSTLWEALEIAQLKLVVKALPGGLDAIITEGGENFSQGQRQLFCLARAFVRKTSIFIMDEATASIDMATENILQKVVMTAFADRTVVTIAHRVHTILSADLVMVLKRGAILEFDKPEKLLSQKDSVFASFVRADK
Sequence of Kir6.2/SUR1 channel (Q61743 whole entry partner): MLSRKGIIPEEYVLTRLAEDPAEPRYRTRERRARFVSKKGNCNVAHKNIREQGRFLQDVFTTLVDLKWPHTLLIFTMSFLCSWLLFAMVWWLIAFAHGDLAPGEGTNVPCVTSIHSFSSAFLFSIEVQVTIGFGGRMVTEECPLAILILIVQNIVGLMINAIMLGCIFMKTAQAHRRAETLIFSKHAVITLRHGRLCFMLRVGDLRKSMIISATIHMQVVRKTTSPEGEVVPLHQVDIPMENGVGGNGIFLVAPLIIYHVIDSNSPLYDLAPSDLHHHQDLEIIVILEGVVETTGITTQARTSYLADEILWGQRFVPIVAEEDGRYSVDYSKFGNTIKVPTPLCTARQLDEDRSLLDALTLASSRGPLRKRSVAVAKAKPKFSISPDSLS

| Structure (SMILES) | KATP channel opener selectivity [1] | KATP channel activation [2] |
| --- | --- | --- |
| COc1ccc2c(c1)S(=O)(=O)N=C(NC(C)C)N2 [3-isopropylamino-7-methoxy-4H-1,2,4,-benzothiadiazine 1,1-dioxide] | selective Kir6.2/SUR1 channel opener |  |
| CC(C)N=C1Nc2cc(Cl)c(Cl)cc2S(=O)(=O)N1 [BPDZ 154] |  | effective KATP channel activator |
